# Measurements taken from patent US9193731B2, “Antimicrobial compounds and methods of making and using the same” (Melinta Therapeutics, Inc., priority 2009, dated 2015).
# Test system: Escherichia coli strain ATCC25922
# Assay: standard microdilution assay to determine minimum inhibitory concentrations (MICs)
# Format: cell-based
# Conditions: Escherichia coli strain ATCC25922, microdilution
# Outline: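 E. coli strain ATCC25922 tested per CLSI microdilution methodology (about 100 microliters per well) to find minimum inhibitory concentrations. Activity scored categorically at a 16 micrograms/ml threshold.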
row,Structure (SMILES),E. coli ATCC25922 MIC
1,N=C(N)NCCCNCc1ccc(-n2cc3cc(-c4cc(CNCCc5ccc(F)cc5)cc(N5CCNCC5)c4)[nH]c3nc2=O)cc1 [Compound 1044],+ (a “+” indicates that the compound has an MIC value of 16 micrograms/ml or less)
2,CN(C)Cc1ccc(-n2cc3cc(-c4ccc(S(=O)(=O)N(CCCC5CCCC5)C5CCNCC5)cc4)[nH]c3nc2=O)cc1 [Compound 1000],− (a “−” indicates that the compound has an MIC value greater than 16 micrograms/ml)
3,NCCCNCc1ccc(-n2cc3cc(-c4ccc(S(=O)(=O)NC5CCCNC5)cc4)[nH]c3nc2=O)cc1 (centres unmarked) [Compound 807],+ (a “+” indicates that the compound has an MIC value of 16 micrograms/ml or less)
4,N=C(N)NCCCNCc1ccc(-n2cc3cc(-c4cc(CCCN)cc(OC(F)(F)F)c4)[nH]c3nc2=O)cc1 [Compound 2058a],+ (a “+” indicates that the compound has an MIC value of 16 micrograms/ml or less)
5,COc1ccc(NCCCS(=O)(=O)c2ccc(-c3cc4cn(-c5ccc(CNCCCN=C(N)N)cc5)c(=O)nc4[nH]3)cc2)cc1 [Compound 1250],− (a “−” indicates that the compound has an MIC value greater than 16 micrograms/ml)
6,N=C(N)NCCCNCc1ccc(-n2cc3cc(-c4cccc(OCC(F)CN)c4)[nH]c3nc2=O)cc1 (centres unmarked) [Compound 1390],+ (a “+” indicates that the compound has an MIC value of 16 micrograms/ml or less)
7,N=C(N)NCCCNCc1ccc(-n2cc3cc(-c4cccc(C(CCCN)C(F)(F)F)c4)[nH]c3nc2=O)cc1 (centres unmarked) [Compound 2075a],+ (a “+” indicates that the compound has an MIC value of 16 micrograms/ml or less)
8,N=C(N)NCCCNCc1ccc(-n2cc3cc(-c4cccc(OC[C@H]5CCNC5)c4)[nH]c3nc2=O)cc1 [Compound 1438],+ (a “+” indicates that the compound has an MIC value of 16 micrograms/ml or less)
9,N=C(N)NCCCNCc1ccc(-n2cc3cc(-c4cccc(C(NCCN)C(F)(F)F)c4)[nH]c3nc2=O)cc1 (centres unmarked) [Compound 2025a],+ (a “+” indicates that the compound has an MIC value of 16 micrograms/ml or less)
10,CC(CCN)Oc1cccc(-c2cc3cn(-c4ccc(CNCCCNC(=N)N)cc4)c(=O)nc3[nH]2)c1 (centres unmarked) [Compound 1414],+ (a “+” indicates that the compound has an MIC value of 16 micrograms/ml or less)
11,N=C(N)NCCCNCc1ccc(-n2cc3cc(-c4ccc(S(=O)(=O)N(CCOc5ccc(F)cc5)C5CCNCC5)cc4)[nH]c3nc2=O)cc1 [Compound 770],+ (a “+” indicates that the compound has an MIC value of 16 micrograms/ml or less)
12,CN(CCCO)Cc1cc(-c2cc3cn(-c4ccc(CNCCCNC(=N)N)cc4)c(=O)nc3[nH]2)cc(N2CCNCC2)c1 [Compound 937],+ (a “+” indicates that the compound has an MIC value of 16 micrograms/ml or less)
13,Cc1cc(-n2cc3cc(-c4cccc(OCCCN)c4)[nH]c3nc2=O)ccc1CNCCCNC(=N)N [Compound 1280],+ (a “+” indicates that the compound has an MIC value of 16 micrograms/ml or less)
14,N=C(N)NCCCNCc1ccc(-n2cc3cc(-c4ccc(S(=O)(=O)N(CCCn5cc(Cl)cn5)C5CCNCC5)cc4)[nH]c3nc2=O)cc1 [Compound 1003],+ (a “+” indicates that the compound has an MIC value of 16 micrograms/ml or less)
15,N=C(N)NCCCNCc1ccc(-n2cc3cc(-c4ccc(S(=O)(=O)N(CCCc5c[nH]nc5C(F)(F)F)C5CCNCC5)cc4)[nH]c3nc2=O)cc1 [Compound 897],+ (a “+” indicates that the compound has an MIC value of 16 micrograms/ml or less)
16,N=C(N)NCCCNCc1ccc(-n2cc3cc(-c4cccc(S(=O)(=O)N(CCc5ccc(F)cc5)C5CCNCC5)c4)[nH]c3nc2=O)cc1 [Compound 1172],+ (a “+” indicates that the compound has an MIC value of 16 micrograms/ml or less)
17,N=C(N)NCCCNCc1ccc(-n2cc3cc(CCNC4CNC4)[nH]c3nc2=O)cc1 [Compound 1398],+ (a “+” indicates that the compound has an MIC value of 16 micrograms/ml or less)
18,N=C(N)NCCCNCc1ccc(-n2cc3cc(-c4cccc(SCCCN)c4)[nH]c3nc2=O)cc1 [Compound 1405],+ (a “+” indicates that the compound has an MIC value of 16 micrograms/ml or less)
19,CCOC(=O)C1(CN(C2CCNCC2)S(=O)(=O)c2ccc(-c3cc4cn(-c5ccc(CNCCCNC(=N)N)cc5)c(=O)nc4[nH]3)cc2)CC1 [Compound 878],+ (a “+” indicates that the compound has an MIC value of 16 micrograms/ml or less)
20,CN(C)Cc1ccc(-n2cc3cc(-c4ccc(S(=O)(=O)N(CCCN5CCCCC5)C5CCNCC5)cc4)[nH]c3nc2=O)cc1 [Compound 987],− (a “−” indicates that the compound has an MIC value greater than 16 micrograms/ml)
21,N=C(N)NCCNC(=O)c1ccc(-n2cc3cc(-c4ccc(S(=O)(=O)NC5CCNCC5)cc4)[nH]c3nc2=O)cc1 [Compound 1048],+ (a “+” indicates that the compound has an MIC value of 16 micrograms/ml or less)
22,NCCCNCc1ccc(-n2cc3cc(-c4cccc(S(=O)(=O)NC5CCNCC5)c4)[nH]c3nc2=O)cc1 [Compound 823],+ (a “+” indicates that the compound has an MIC value of 16 micrograms/ml or less)
23,"N=C(N)NCCCNCc1ccc(-n2cc3cc(-c4ccc(S(=O)(=O)N(CC5CCOCC5)C5CCCNC5)cc4)[nH]c3nc2=O)cc1 (single isomer, unassigned) [Compound 844]",+ (a “+” indicates that the compound has an MIC value of 16 micrograms/ml or less)
24,CNCc1ccc(-n2cc3cc(-c4ccc(S(=O)(=O)N(CC5COc6ccccc6O5)C5CCNCC5)cc4)[nH]c3nc2=O)cc1 (centres unmarked) [Compound 968],− (a “−” indicates that the compound has an MIC value greater than 16 micrograms/ml)
25,NCCCNC(=O)c1ccc(-n2cc3cc(-c4ccc(S(=O)(=O)NC5CCNCC5)cc4)[nH]c3nc2=O)cc1 [Compound 892],+ (a “+” indicates that the compound has an MIC value of 16 micrograms/ml or less)

# Same assay, conditions: Escherichia coli, ATCC25922, Escherichia coli strain ATCC25922, microdilution; read-out: E. coli ATCC25922 MIC
row,MIC [µg/mL],Structure (SMILES)
1,< 16,N=C(N)NCCCNCc1ccc(-n2cc3cc(CCS(=O)(=O)CCN)[nH]c3nc2=O)cc1 [Compound 1189]
2,> 16,CNCc1ccc(-n2cc3cc(-c4ccc(S(=O)(=O)N(CCCc5cccc(OC)c5)C5CCNCC5)cc4)[nH]c3nc2=O)cc1 [Compound 1034]
3,> 16,NCc1ccc(-n2cc3cc(-c4cccc(OCC(F)(F)CN)c4)[nH]c3nc2=O)cc1 [Compound 1436]
4,> 16,CCOCCOc1ccccc1-c1cc2cn(-c3ccc(CN)cc3)c(=O)nc2[nH]1 [Compound 1131]
5,< 16,CN(CCO)C(=O)c1ccc(-c2cn3cc(-c4ccc(CNCCCNC(=N)N)cc4)c(=O)nc3[nH]2)cc1 [Compound 720]
6,> 16,CNCc1ccc(-n2cc3cc(-c4ccc(S(=O)(=O)N(CCCC5CCCC5)C5CCNCC5)cc4)[nH]c3nc2=O)cc1 [Compound 947]
7,> 16,CS(=O)(=O)N1CCN(C(=O)c2ccc(-c3cn4cc(-c5ccc(CNCCCN)cc5)c(=O)nc4[nH]3)cc2)CC1 [Compound 701]
8,> 16,N=C(N)NCCCNCc1ccc(-n2cc3cc(-c4cccc(NCC(=O)N5CCOCC5)c4)[nH]c3nc2=O)cc1 [Compound 637]
9,< 16,N=C(N)NCCCNC(=O)c1ccc(-n2cc3cc(-c4ccc(C[C@H](N)CO)cc4)[nH]c3nc2=O)cc1 [Compound 1164]
10,> 16,CN(C)CCOc1ccccc1-c1cc2cn(-c3ccc(CNCCCNC(=N)N)cc3)c(=O)nc2[nH]1 [Compound 1167]
11,> 16,NCCCCN1CCC(n2cc3c(nc2=O)[nH]c2ccccc23)CC1 [Compound 600]
12,> 16,CCOCCOc1cccc(-c2cc3cn(-c4ccc(CN)cc4)c(=O)nc3[nH]2)c1 [Compound 1121]
13,> 16,NCCCNCc1ccc(-n2cc3cc(CCN4CCS(=O)(=O)CC4)[nH]c3nc2=O)cc1 [Compound 784]
14,> 16,O=c1nc2[nH]c(-c3ccc(S(=O)(=O)NC4CCNCC4)cc3F)cc2cn1-c1ccc(CNCCCCl)cc1 [Compound 250]
15,< 16,N=C(N)NCCCNCc1ccc(-n2cc3cc(CCN[C@H]4CCCNC4)[nH]c3nc2=O)cc1 [Compound 817]
16,> 16,NCc1ccc(-n2cc3cc(-c4cccc(S(=O)(=O)N(CCOc5ccc(F)cc5)C5CCNCC5)c4)[nH]c3nc2=O)cc1 [Compound 1123]
17,< 16,NCCCNCc1ccc(-n2cc3cc(CCN[C@@H]4CCCNC4)[nH]c3nc2=O)cc1 [Compound 814]
18,> 16,NCCCCOc1ccc(-c2cn3cc(-c4ccc(Br)cc4)[nH]c3nc2=O)cc1 [Compound 810]
19,> 16,NCc1ccc(-n2cc3cc(-c4cccc(S(=O)(=O)N(CCn5cccn5)C5CCNCC5)c4)[nH]c3nc2=O)cc1 [Compound 1174]
20,> 16,CNCc1ccc(-n2cc3cc(-c4ccc(S(=O)(=O)N(CCCN5CCCC(O)C5)C5CCNCC5)cc4)[nH]c3nc2=O)cc1 (centres unmarked) [Compound 1079]
21,< 16,N=C(N)NCCCNCc1ccc(-n2cc3cc(-c4cccc(S(=O)(=O)N(CCn5ccnc5)C5CCNCC5)c4)[nH]c3nc2=O)cc1 [Compound 1159]
22,> 16,NCCCNCc1ccc(-c2cn3cc(-c4ccc(S(=O)(=O)N5CC[C@@H](F)C5)cc4)[nH]c3nc2=O)cc1 [Compound 743]
23,> 16,CC(=O)NCCOc1cccc(-c2cc3cn(-c4ccc(CN)cc4)c(=O)nc3[nH]2)c1 [Compound 1143]
24,> 16,N=C(N)NCCCNCc1ccc(-n2cc3cc(COc4ccccc4)[nH]c3nc2=O)cc1 [Compound 630]
25,< 16,CN(C(=O)c1ccc(-c2cn3cc(-c4ccc(CNCCCNC(=N)N)cc4)c(=O)nc3[nH]2)cc1)C1CCNCC1 [Compound 736]
26,< 16,NCCCN(CCCN)Cc1ccc(-n2cc3cc(-c4ccc(S(=O)(=O)N(Cc5ccc(Cl)c(Cl)c5)C5CCNCC5)cc4)[nH]c3nc2=O)cc1 [Compound 235]
27,> 16,CNCc1ccc(-n2cc3cc(-c4ccc(S(=O)(=O)N(CCCC5CCCO5)C5CCNCC5)cc4)[nH]c3nc2=O)cc1 (centres unmarked) [Compound 1052]

row,Structure (SMILES),MIC [µg/mL]
1,CCCCN1CC=C(c2cn3cc(-c4ccc(F)cc4)[nH]c3nc2=O)CC1 [Compound 565],> 16
